≈ marks a conversion by molar mass, not a printed value.
Legend:
Assay in all cases: ≥ marks a high value that may be exact or a test limit, other limits are often not marked, values filed in µg/mL are converted to µM
[1] = test system: Candida albicans ATCC 2002
[2] = test system: Escherichia coli ATCC 25922
[3] = test system: Staphylococcus aureus ATCC 25923
[4] = test system: Pseudomonas aeruginosa CMCCB 10104
[5] = test system: Klebsiella pneumoniae ATCC 700603
[6] = test system: Bacillus subtilis ATCC 23857
[7] = test system: Pseudomonas aeruginosa ATCC 9027
Bacillus subtilis = test system: Bacillus subtilis
[8] = test system: Staphylococcus aureus ATCC 2592
[9] = test system: Staphylococcus epidermidis ATCC 12228
[10] = test system: Enterococcus faecalis ATCC 29212
[11] = test system: Acinetobacter baumannii ATCC 19606
[12] = test system: Pseudomonas aeruginosa ATCC 27853
[13] = test system: Staphylococcus aureus ATCC 6538

Row | Structure (SMILES) | MIC [1] [µM] | MIC [2] [µM] | MIC [3] [µM] | MIC [4] [µM] | MIC [6] [µM] | further results
1 | CC[C@H](C)[C@H](NC(=O)CNC(=O)[C@H](CC(=O)O)NC(=O)[C@H](CC(C)C)NC(=O)[C@H](CC(C)C)NC(=O)CN)C(=O)N[C@@H](CC(C)C)C(=O)N[C@@H](CC(N)=O)C(=O)N[C@@H](C)C(=O)N[C@@H](CC(N)=O)C(=O)N[C@@H](Cc1ccccc1)C(=O)N[C@@H](CC(N)=O)C(=O)N[C@@H](C)C(=O)N[C@@H](C)C(=O)N[C@@H](CCCCN)C(=O)N[C@@H](CO)C(=O)N[C@@H](C)C(=O)NCC(=O)N[C@H](C(=O)N[C@@H](CO)C(=O)N[C@H](C(=O)N[C@@H](CC(C)C)C(=O)N[C@@H](CC(N)=O)C(=O)N[C@@H](C)C(=O)N[C@@H](CC(C)C)C(=O)N[C@@H](CO)C(=O)N[C@H]1CSSC[C@@H](C(=O)O)NC(=O)[C@H]([C@@H](C)O)NC(=O)[C@H](CCCCN)NC(=O)[C@H](CO)NC(=O)[C@H](CC(C)C)NC(=O)[C@H](CCCCN)NC1=O)C(C)C)[C@@H](C)O [GLLDGILNANFNAAKSAGTSVLNALSCKLSKTC] | 9.28 (≈ 30.6 µg/mL) | 9.28 (≈ 30.6 µg/mL) | 9.28 (≈ 30.6 µg/mL) | 9.28 (≈ 30.6 µg/mL) |  | 
2 | CC[C@H](C)[C@H](NC(=O)[C@H](CCCCN)NC(=O)[C@H](CCCCN)NC(=O)[C@H](C)NC(=O)[C@@H](NC(=O)[C@H](C)NC(=O)[C@H](CC(C)C)NC(=O)[C@H](CC(C)C)NC(=O)[C@H](C)NC(=O)[C@H](CCCCN)NC(=O)[C@H](C)NC(=O)[C@H](CC(N)=O)NC(=O)[C@@H](N)CC(C)C)C(C)C)C(=O)N[C@@H](CC(C)C)C(N)=O [LNAKALLAVAKKIL] |  | 8 (≈ 11.7 µg/mL) | 32 (≈ 46.9 µg/mL) |  | 8 (≈ 11.7 µg/mL) | MIC [5]: 32 µM (≈ 46.9 µg/mL); MIC [7]: 32 µM (≈ 46.9 µg/mL)
3 | CC(C)[C@H](N)C(=O)N[C@@H](CCCCN)C(=O)N[C@@H](Cc1c[nH]c2ccccc12)C(=O)N[C@@H](CCCN=C(N)N)C(=O)N[C@@H](Cc1c[nH]c2ccccc12)C(=O)N[C@@H](CCCCN)C(=O)N[C@@H](Cc1c[nH]c2ccccc12)C(=O)N[C@@H](CCCCN)C(=O)N[C@@H](Cc1c[nH]c2ccccc12)C(=O)N[C@@H](CCCN=C(N)N)C(=O)N[C@@H](Cc1c[nH]c2ccccc12)C(=O)N[C@@H](CCCCN)C(=O)N[C@@H](Cc1c[nH]c2ccccc12)C(=O)N[C@@H](CCCCN)C(=O)N[C@@H](Cc1c[nH]c2ccccc12)C(=O)N[C@@H](CCCCN)C(=O)N[C@H](C(N)=O)C(C)C [VKWRWKWKWRWKWKWKV] | ≥ 38.4 | > 38.4 |  |  |  | MIC (Bacillus subtilis): ≥ 38.4 µM; MIC [8]: ≥ 38.4 µM
4 | CC[C@H](C)[C@H](NC(=O)[C@H](CCCN=C(N)N)NC(=O)[C@H](CCCN=C(N)N)NC(=O)[C@H](Cc1ccccc1)NC(=O)[C@H](Cc1ccccc1)NC(=O)CN)C(=O)N[C@@H](CCCN=C(N)N)C(=O)N[C@H](C(=O)N[C@@H](Cc1ccccc1)C(=O)N[C@@H](Cc1ccccc1)C(N)=O)[C@@H](C)O [GFFRRIRTFF] |  | 32 (≈ 43.1 µg/mL) | 8 (≈ 10.8 µg/mL) |  | 8 (≈ 10.8 µg/mL) | MIC [9]: 32 µM (≈ 43.1 µg/mL); MIC [5]: 32 µM (≈ 43.1 µg/mL); MIC [10]: 32 µM (≈ 43.1 µg/mL); MIC [11]: 32 µM (≈ 43.1 µg/mL); MIC [12]: 4 µM (≈ 5.38 µg/mL)
5 | CC[C@H](C)[C@H](NC(=O)[C@H](CC(N)=O)NC(=O)[C@H](CCCCN)NC(=O)[C@H](CCCCN)NC(=O)[C@@H]1CCCN1C(=O)[C@H](Cc1ccccc1)NC(=O)[C@@H](NC(=O)[C@@H](N)Cc1ccccc1)[C@@H](C)CC)C(=O)N[C@H](C(=O)N[C@@H](CC(N)=O)C(=O)N[C@@H](CO)C(=O)N[C@@H](CC(C)C)C(=O)N[C@@H](Cc1ccccc1)C(=O)NCC(=O)N[C@@H](CCCN=C(N)N)C(=O)O)[C@@H](C)CC [FIFPKKNIINSLFGR] | 8.92 (≈ 16 µg/mL) | > 70.2 | 8.92 (≈ 16 µg/mL) | 8.92 (≈ 16 µg/mL) |  | 
6 | CC[C@H](C)[C@H](NC(=O)[C@H](CCCCN)NC(=O)[C@@H](NC(=O)[C@@H](NC(=O)[C@H](CCCCN)NC(=O)[C@H](CCCCN)NC(=O)[C@@H](NC(=O)[C@@H](NC(=O)[C@H](CCCCN)NC(=O)[C@H](CCCCN)NC(=O)[C@@H](NC(=O)[C@@H](N)CCCCN)[C@@H](C)CC)[C@@H](C)CC)[C@@H](C)CC)[C@@H](C)CC)[C@@H](C)CC)C(N)=O [KIKKIIKKIIKI] |  | 219 (≈ 321 µg/mL) |  |  | 15.1 (≈ 22.1 µg/mL) | MIC [13]: 339 µM (≈ 497 µg/mL); MIC [7]: 9 µM (≈ 13.2 µg/mL)
7 | CC[C@H](C)[C@@H]1NC(=O)[C@H](CO)NC(=O)[C@H](CCCCN)NC(=O)[C@H]([C@@H](C)O)NC(=O)[C@H](Cc2c[nH]c3ccccc23)NC(=O)[C@@H](N)CSSC[C@@H](C(=O)N[C@@H](Cc2ccccc2)C(=O)O)NC(=O)[C@@H]2CCCN2C(=O)[C@H](CCCCN)NC(=O)[C@@H]2CCCN2C(=O)[C@@H]2CCCN2C1=O [CWTKSIPPKPCF] | 13.8 (≈ 19.4 µg/mL) | 6.33 (≈ 8.89 µg/mL) |  |  |  | MIC (Bacillus subtilis): 7.46 µM (≈ 10.5 µg/mL); MIC [8]: 4.24 µM (≈ 5.95 µg/mL)
8 | CSCC[C@H](NC(=O)[C@H](CCC(=O)O)NC(=O)[C@H](C)NC(=O)[C@H](C)NC(=O)[C@@H](NC(=O)CNC(=O)[C@H](C)NC(=O)[C@@H](NC(=O)[C@H](Cc1ccccc1)NC(=O)[C@@H]1CCCN1C(=O)[C@@H](N)CC(C)C)C(C)C)C(C)C)C(=O)N[C@@H](CCSC)C(=O)N[C@@H](CCC(N)=O)C(=O)N[C@@H](Cc1cnc[nH]1)C(=O)N[C@H](C(=O)N[C@@H](Cc1ccc(O)cc1)C(=O)N[C@H]1CSSC[C@@H](C(=O)O)NC(=O)[C@H](CCCCN)NC(=O)[C@H](CCCCN)NC(=O)[C@H](CO)NC(=O)[C@H](C)NC(=O)[C@H](C)NC1=O)C(C)C [LPFVAGVAAEMMQHVYCAASKKC] | 4.32 (≈ 10.6 µg/mL) | 2.16 (≈ 5.3 µg/mL) | 4.32 (≈ 10.6 µg/mL) | 17.3 (≈ 42.4 µg/mL) |  | 
9 | CC[C@H](C)[C@H](NC(=O)CN)C(=O)N[C@H](C(=O)N[C@@H](C)C(=O)NCC(=O)N[C@H](C(=O)N[C@H](C(=O)N[C@H](C(=O)N[C@@H](C)C(=O)N[C@H](C(=O)N[C@@H](CCCCN)C(=O)N[C@@H](CCCCN)C(N)=O)[C@@H](C)CC)[C@@H](C)CC)[C@@H](C)CC)[C@@H](C)CC)[C@@H](C)CC [GIIAGIIIAIKK] |  | > 128 |  |  | 8 (≈ 9.67 µg/mL) | 
10 | CC[C@H](C)[C@H](NC(=O)[C@H](CCCN=C(N)N)NC(=O)[C@H](CCCCN)NC(=O)[C@H](Cc1ccccc1)NC(=O)[C@H](Cc1c[nH]c2ccccc12)NC(=O)[C@@H](N)CCCCN)C(=O)N[C@@H](CCCCN)C(=O)N[C@H](C(=O)N[C@@H](Cc1ccccc1)C(=O)N[C@@H](Cc1c[nH]c2ccccc12)C(N)=O)[C@@H](C)O [KWFKRIKTFW] |  | 16 (≈ 23 µg/mL) | 16 (≈ 23 µg/mL) |  | 16 (≈ 23 µg/mL) | MIC [9]: 128 µM (≈ 184 µg/mL); MIC [5]: 32 µM (≈ 46 µg/mL); MIC [10]: 64 µM (≈ 92.1 µg/mL); MIC [11]: 128 µM (≈ 184 µg/mL); MIC [12]: 8 µM (≈ 11.5 µg/mL)
11 | CC[C@H](C)[C@H](NC(=O)[C@H](C)NC(=O)[C@H](CC(C)C)NC(=O)[C@H](CC(N)=O)NC(=O)[C@H](CCCCN)NC(=O)[C@H](CC(C)C)NC(=O)[C@@H](NC(=O)[C@H](CC(=O)O)NC(=O)[C@H](CC(C)C)NC(=O)[C@H](Cc1ccccc1)NC(=O)[C@@H](N)CO)[C@@H](C)O)C(=O)N[C@@H](CO)C(=O)N[C@@H](C)C(=O)N[C@@H](C)C(=O)N[C@@H](CCCCN)C(=O)NCC(=O)N[C@@H](C)C(=O)NCC(=O)N[C@@H](CCC(N)=O)C(=O)N[C@@H](CO)C(=O)N[C@H](C(=O)N[C@@H](CC(C)C)C(=O)N[C@@H](CO)C(=O)N[C@H](C(=O)N[C@@H](CC(C)C)C(=O)N[C@@H](CO)C(=O)N[C@H]1CSSC[C@@H](C(=O)O)NC(=O)[C@H]([C@@H](C)O)NC(=O)[C@H](CCCCN)NC(=O)[C@H](CO)NC(=O)[C@H](CC(C)C)NC(=O)[C@H](CCCCN)NC1=O)[C@@H](C)O)C(C)C [SFLDTLKNLAISAAKGAGQSVLSTLSCKLSKTC] | 3.9 (≈ 13.1 µg/mL) | 3.9 (≈ 13.1 µg/mL) | 3.9 (≈ 13.1 µg/mL) | 3.9 (≈ 13.1 µg/mL) |  | 
12 | CC[C@H](C)[C@H](NC(=O)CN)C(=O)N[C@@H](CCCN=C(N)N)C(=O)N[C@@H](CCCN=C(N)N)C(=O)NCC(=O)N[C@H](C(=O)N[C@@H](CCCN=C(N)N)C(=O)N[C@@H](CCCN=C(N)N)C(=O)N[C@H](C(=O)N[C@H](C(=O)N[C@@H](CCCCN)C(=O)N[C@@H](CCCN=C(N)N)C(N)=O)[C@@H](C)CC)[C@@H](C)CC)[C@@H](C)CC [GIRRGIRRIIKR] |  | > 128 |  |  | ≥ 128 | 
13 | CC[C@H](C)[C@H](NC(=O)[C@H](CC(C)C)NC(=O)[C@@H](NC(=O)[C@H](Cc1ccccc1)NC(=O)[C@H](CC(C)C)NC(=O)CN)[C@@H](C)O)C(=O)N[C@@H](CCCCN)C(=O)NCC(=O)N[C@@H](C)C(=O)N[C@@H](Cc1ccc(O)cc1)C(=O)N[C@@H](CCCCN)C(=O)N[C@@H](CC(C)C)C(=O)N[C@@H](CC(=O)O)C(=O)N[C@@H](C)C(=O)N1CCC[C@H]1C(=O)N[C@H](C(=O)N[C@H](C(=O)N[C@@H](C)C(=O)N[C@@H](CS)C(=O)N[C@@H](CC(N)=O)C(=O)O)C(C)C)[C@@H](C)O [GLFTLIKGAYKLDAPTVACN] | 9.59 (≈ 20.1 µg/mL) | 19.2 (≈ 40.2 µg/mL) | 9.59 (≈ 20.1 µg/mL) | 19.2 (≈ 40.2 µg/mL) |  | 
14 | CC[C@H](C)[C@H](NC(=O)CN)C(=O)N[C@@H](CC(C)C)C(=O)N[C@@H](CCCCN)C(=O)N[C@@H](CCCCN)C(=O)N[C@H](C(=O)N[C@@H](CC(C)C)C(=O)N[C@@H](CCCCN)C(=O)N[C@@H](CCCCN)C(=O)N[C@H](C(=O)N[C@@H](CC(C)C)C(=O)N[C@@H](CCCCN)C(=O)N[C@@H](CCCCN)C(=O)N[C@@H](CC(C)C)C(N)=O)[C@@H](C)CC)[C@@H](C)CC [GILKKILKKILKKL] |  | 9.3 (≈ 15.2 µg/mL) |  |  | 1.6 (≈ 2.62 µg/mL) | MIC [13]: 5.2 µM (≈ 8.5 µg/mL); MIC [7]: 5.8 µM (≈ 9.48 µg/mL)

— DBAASP
